Laboratory results published in publication PMC7808749, “Morpholine-based chalcones as dual-acting monoamine oxidase-B and acetylcholinesterase inhibitors: synthesis and biochemical investigations” (Journal of Enzyme Inhibition and Medicinal Chemistry, 2021).
In brackets after ≈: the same amount, converted by molar mass. Entries after “also recorded” stand apart in the source; their conditions may differ. Like-named read-outs stand apart in the source and are kept apart here.

Experiments:
in vitro = assay: in vitro
Text: The synthesised derivatives were screened for their abilities to cross the BBB using the parallel artificial membrane permeability assay (PAMPA) because this ability is a critical developmental requirement for any drug targeting neurodegenerative disorders or depression.

[1] = PAMPA-BBB reported values; cited from earlier work
MAO-B [2] = target: T1, MAO-B (Homo sapiens, UniProt P27338); assay: Reversibility of MAO-B inhibition by dialysis; format: biochemical; conditions: for MAO-B residual activity, dialysed (AD): after 6 h dialysis
T1 sequence (P27338 1-520): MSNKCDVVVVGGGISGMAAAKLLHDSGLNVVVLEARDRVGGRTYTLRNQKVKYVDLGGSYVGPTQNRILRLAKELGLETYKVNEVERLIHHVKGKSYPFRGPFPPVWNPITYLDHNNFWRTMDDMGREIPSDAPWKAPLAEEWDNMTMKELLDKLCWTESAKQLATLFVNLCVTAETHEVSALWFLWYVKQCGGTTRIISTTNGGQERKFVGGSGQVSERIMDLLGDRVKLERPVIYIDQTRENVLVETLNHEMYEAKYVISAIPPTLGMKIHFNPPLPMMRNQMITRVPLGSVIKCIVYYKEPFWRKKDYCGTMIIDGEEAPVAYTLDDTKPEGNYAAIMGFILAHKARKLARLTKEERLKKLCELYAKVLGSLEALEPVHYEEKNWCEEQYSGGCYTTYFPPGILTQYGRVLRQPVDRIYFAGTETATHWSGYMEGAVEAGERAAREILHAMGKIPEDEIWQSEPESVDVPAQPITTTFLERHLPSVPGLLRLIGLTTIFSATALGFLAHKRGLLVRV
Description: Figure 6. […] For recovery experiments, preincubated enzyme mixtures were dialysed as described in the text.
Inhibition types (reversible or irreversible) were determined by dialysis, as previously described^51,52, but by using 0.06 mM kynuramine and 0.3 mM benzylamine. For the experiment of AChE, 0.5 mM ATCI was used. […] Residual activities were calculated using the measured activities of undialyzed (AU) and dialysed (AD) solutions and the activities of untreated controls (i.e. without inhibitor).

recombinant human MAO-A = target: T2, recombinant human MAO-A (Homo sapiens, UniProt P21397); assay: MAO-A inhibition assay (kynuramine substrate); format: biochemical; conditions: for remaining activity at 10 µM: read-out: Residual activities (%) MAO-A (10 µM)
T2 sequence (P21397 1-527): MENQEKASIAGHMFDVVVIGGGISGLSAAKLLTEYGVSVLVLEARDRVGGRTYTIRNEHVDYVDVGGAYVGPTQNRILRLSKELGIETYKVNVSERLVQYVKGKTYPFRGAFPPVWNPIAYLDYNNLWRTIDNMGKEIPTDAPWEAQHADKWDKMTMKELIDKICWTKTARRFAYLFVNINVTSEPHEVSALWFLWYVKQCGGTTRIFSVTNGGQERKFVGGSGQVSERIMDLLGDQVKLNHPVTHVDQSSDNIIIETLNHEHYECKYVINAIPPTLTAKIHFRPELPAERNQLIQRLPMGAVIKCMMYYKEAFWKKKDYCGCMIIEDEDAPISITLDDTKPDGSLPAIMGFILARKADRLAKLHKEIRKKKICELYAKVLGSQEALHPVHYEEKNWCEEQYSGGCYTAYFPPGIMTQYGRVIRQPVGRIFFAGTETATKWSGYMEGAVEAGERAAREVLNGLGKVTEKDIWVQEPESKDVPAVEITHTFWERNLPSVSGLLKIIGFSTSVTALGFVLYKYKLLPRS
Description: (§1) MAO-A, MAO-B, AChE and BChE activities were measured after exposure to inhibitors at a concentration of 10 µM. […] IC50 values were determined by measuring the residual enzyme activities. […] Ki values and inhibitor types were determined by kinetic testing, as previously described. […] Lineweaver–Burk plots and their secondary plots were used to determine Ki values and inhibitor types.

MAO-B [3] = target: T1, MAO-B; assay: MAO-B inhibition assay (benzylamine substrate); format: biochemical; conditions: for remaining activity at 1 µM: read-out: Residual activities (%) MAO-B (1.0 µM); for SI = IC50 of MAO-A/IC50 of MAO-B: selectivity for MAO-B over MAO-A
AChE [4] = target: T3, AChE (Electrophorus electricus, UniProt O42275); assay: AChE inhibition assay (modified Ellman method, ATCI); format: biochemical; conditions: 15 min pre-incubation, mean ± SE
T3 sequence (O42275 24-633): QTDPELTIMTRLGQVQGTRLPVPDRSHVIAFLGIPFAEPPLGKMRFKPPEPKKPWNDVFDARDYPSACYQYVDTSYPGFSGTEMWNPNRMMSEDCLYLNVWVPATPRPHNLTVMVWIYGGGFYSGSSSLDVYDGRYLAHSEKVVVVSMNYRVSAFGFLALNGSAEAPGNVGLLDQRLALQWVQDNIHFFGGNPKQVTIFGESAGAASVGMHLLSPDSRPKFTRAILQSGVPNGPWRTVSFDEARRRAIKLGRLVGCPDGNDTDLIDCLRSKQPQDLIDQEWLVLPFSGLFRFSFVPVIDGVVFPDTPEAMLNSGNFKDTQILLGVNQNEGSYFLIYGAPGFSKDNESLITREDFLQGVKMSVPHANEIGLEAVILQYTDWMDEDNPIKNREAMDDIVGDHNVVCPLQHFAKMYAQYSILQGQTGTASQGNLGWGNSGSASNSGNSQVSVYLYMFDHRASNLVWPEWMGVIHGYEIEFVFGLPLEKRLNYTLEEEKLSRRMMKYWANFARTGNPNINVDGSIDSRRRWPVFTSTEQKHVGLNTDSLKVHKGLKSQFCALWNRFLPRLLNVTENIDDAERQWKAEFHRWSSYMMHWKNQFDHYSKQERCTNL

BChE = BChE (Equus caballus, UniProt P81908); assay: biochemical; conditions: for remaining activity at 10 µM: read-out: Residual activities (%) BChE (10 µM)
Chain of BChE (P81908 whole entry): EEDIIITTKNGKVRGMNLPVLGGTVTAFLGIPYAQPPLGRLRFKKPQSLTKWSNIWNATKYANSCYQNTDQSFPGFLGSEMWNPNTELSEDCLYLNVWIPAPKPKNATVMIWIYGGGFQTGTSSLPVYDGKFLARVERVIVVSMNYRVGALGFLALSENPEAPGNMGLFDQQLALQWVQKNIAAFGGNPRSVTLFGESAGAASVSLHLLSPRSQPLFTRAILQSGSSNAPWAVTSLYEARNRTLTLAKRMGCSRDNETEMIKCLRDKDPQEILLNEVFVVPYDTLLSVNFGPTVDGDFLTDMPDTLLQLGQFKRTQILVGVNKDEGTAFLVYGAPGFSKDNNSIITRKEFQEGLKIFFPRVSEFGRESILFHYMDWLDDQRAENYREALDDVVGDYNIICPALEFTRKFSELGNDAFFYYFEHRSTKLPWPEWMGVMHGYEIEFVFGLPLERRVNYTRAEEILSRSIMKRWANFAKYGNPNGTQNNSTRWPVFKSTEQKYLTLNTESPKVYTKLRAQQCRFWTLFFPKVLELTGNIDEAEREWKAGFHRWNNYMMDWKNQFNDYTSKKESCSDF
Description: Colour development was performed using 0.5 mM 5,5′-dithiobis (2-nitrobenzoic acid) (DTNB), which reacts with thiocholine (a product of ATCI by AChE or of BTCI by BChE) to produce 5-thio 2-nitrobenzoic acid.
as §1

MAO-B [5] = target: T1, MAO-B; assay: Kinetics of MAO-B inhibition (Lineweaver-Burk and secondary plots); format: biochemical
Description: as §1

Hela cells = assay: Total ROS assay in H2O2-treated cells; format: cell-based, human; conditions: for ROS levels in H2O2-treated Hela cells: 40 µg/mL compound, 100 μg/mL H2O2, fluorescent image analysis
Text: ROS are considered to be the radicals primarily responsible for the neuronal death observed in various neurodegenerative disorders.
Figure 7.

normal VERO cells = assay: MTT cytotoxicity assay; conditions: for IC50: Chlorocebus sabaeus, Vero, read-out: IC50 in normal VERO cells
AChE [6] = target: T3, AChE; assay: Kinetics of AChE inhibition (Lineweaver-Burk and secondary plots); format: biochemical
Description: as §1

AChE [7] = target: T3, AChE; assay: Reversibility of AChE inhibition by dialysis; format: biochemical; conditions: for Reversibility of AChE inhibition: dialysis; for AChE residual activity, dialysed (AD) / AChE residual activity, undialyzed (AU): inhibitor ~2 × IC50; for AChE residual activity, dialysed (AD): after 6 h dialysis; for AChE residual activity, undialyzed (AU): before dialysis

Row | SMILES | Papp (in vitro; PAMPA) | Prediction (BBB permeation class) (in vitro; PAMPA-BBB, class from Pe) | remaining activity at 1 µM (MAO-B [3]) | remaining activity at 10 µM (BChE) | remaining activity at 10 µM (recombinant human MAO-A; inhibitor 10 µM, mean ± SE) | IC50 (recombinant human MAO-A; mean ± SE) | IC50 (MAO-B [3]) | SI = IC50 of MAO-A/IC50 of MAO-B (MAO-B [3]) | other results
1 | NCCc1ccc(O)c(O)c1 [Dopamine, reference compound] |  |  |  |  |  |  |  |  | Prediction (BBB permeation class) (in vitro; PAMPA): CNS- (key: CNS+ (high): Pe (10^−6 cm s^−1) > 4.00; CNS- (low): Pe (10^−6 cm s^−1) <2.00; CNS± (uncertain): Pe (10^−6 cm s^−1) from 4.00 to 2.00); Bibliography Pe (×10^−6 cm s^−1) [1]: 0.2 ×10^−6 cm s^−1
2 | NCCNC(=O)c1ccc(Cl)cn1 [Lazabemide, reference compound] |  |  |  |  |  |  |  |  | MAO-B residual activity, dialysed (AD) (MAO-B [2]; inhibitor ~2 × IC50): 90.0%; MAO-B residual activity, undialyzed (AU) (MAO-B [2]; inhibitor ~2 × IC50, before dialysis): 38.8%
3 | CCn1cc(C(=O)O)c(=O)c2cc(F)c(N3CCNC(C)C3)c(F)c21 (stereo not shown) [Lomefloxacin, reference compound] | 1.26 ± 0.01 ×10⁻⁶ cm/s | CNS- (CNS- (low): Pe (10^−6 cm s^−1) <2.00) |  |  |  |  |  |  | 
4 | O=C(/C=C/c1ccccc1)c1ccc(N2CCOCC2)cc1 [MO1] | 16.34 ± 0.16 ×10⁻⁶ cm/s | CNS+ (CNS+ (high): Pe (10^−6 cm s^−1) > 4.00) | 38.1 ± 9.5% | 62.9 ± 2.97% |  |  |  |  | remaining activity at 10 µM (recombinant human MAO-A): 94.2 ± 0.62%; IC50 (MAO-B [3]; read-out: IC50 (µM) MAO-B, mean ± SE): 0.03 ± 0.062 µM; IC50 (AChE [4]): 16.1 ± 2.24 µM; Type of MAO-B inhibition (MAO-B [5]): reversible mixed-type inhibitor; Reversibility of MAO-B inhibition (MAO-B [2]; dialysis): reversible inhibitor; MAO-B residual activity, dialysed (AD) (MAO-B [2]; inhibitor ~2 × IC50): 77.1%; BBB permeation (in vitro; PAMPA-BBB): crossed the blood–brain barrier; ROS levels in H2O2-treated Hela cells (Hela cells): significantly lower ROS levels than MO9; Colony formation induced by H2O2 (Hela cells; Hela cells): markedly reduced; IC50 (normal VERO cells): 195 µg/mL (≈ 665 µM); Toxicity to normal VERO cells (normal VERO cells; MTT assay): non-toxic
5 | O=C(/C=C/c1ccc(O)cc1)c1ccc(N2CCOCC2)cc1 [MO2] |  |  | 54.5 ± 5.28% | 63.5 ± 3.3% | 93.8 ± 1.34% | > 40 µM | 0.7 ± 0.23 µM | > 57.1 | 
6 | COc1ccc(/C=C/C(=O)c2ccc(N3CCOCC3)cc2)cc1 [MO3] |  |  | 79.9 ± 5.28% | 56.8 ± 2.97% | 91 ± 3.17% | > 40 µM | 1.01 ± 0.08 µM | >39.6 | 
7 | Cc1ccc(/C=C/C(=O)c2ccc(N3CCOCC3)cc2)cc1 [MO4] |  |  | 49 ± 1.45% | 80.3 ± 6.43% | 70.2 ± 1.24% | 25.8 ± 1.58 µM | 0.33 ± 0.03 µM | 78.2 | 
8 | CN(C)c1ccc(/C=C/C(=O)c2ccc(N3CCOCC3)cc2)cc1 [MO5] | 14.4 ± 0.81 ×10⁻⁶ cm/s | CNS+ (CNS+ (high): Pe (10^−6 cm s^−1) > 4.00) |  |  |  |  |  |  | Residual activities (%) MAO-A (10 µM) (recombinant human MAO-A; inhibitor 10 µM, mean ± SE): 88.1 ± 3.43%; IC50 (AChE [4]): 6.1 ± 0.0048 µM; Residual activities (%) AChE (10 µM) (AChE [4]; inhibitor 10 µM): 34.5 ± 9.51%; Residual activities (%) BChE (10 µM) (BChE; inhibitor 10 µM, mean ± SE): 60.86 ± 1.07%; Type of AChE inhibition (AChE [6]): reversibly competitively inhibited; Reversibility of AChE inhibition (AChE [7]): reversible inhibitors; AChE residual activity, dialysed (AD) (AChE [7]): 79.2%; AChE residual activity, undialyzed (AU) (AChE [7]): 35.8%; BBB permeation (in vitro; PAMPA-BBB): crossed the blood–brain barrier; ROS levels in H2O2-treated Hela cells (Hela cells): significantly lower ROS levels than MO9; IC50 in normal VERO cells (normal VERO cells; MTT assay): 185.44 µg/mL (≈ 551 µM); Toxicity to normal VERO cells (normal VERO cells; MTT assay): non-toxic
9 | CCc1ccc(/C=C/C(=O)c2ccc(N3CCOCC3)cc2)cc1 [MO6] |  |  | 64.1 ± 1.37% | 70.96 ± 0.36% | 12.3 ± 1.58% | 8.7 ± 1.32 µM | 0.64 ± 0.04 µM | 13.6 | 
10 | O=C(/C=C/c1ccc([N+](=O)[O-])cc1)c1ccc(N2CCOCC2)cc1 [MO7] |  |  | 26.1 ± 5.44% | 70.2 ± 4.76% |  | 7.1 ± 0.41 µM | 0.25 ± 0.05 µM | 28.4 | 
11 | O=C(/C=C/c1ccc(Cl)cc1)c1ccc(N2CCOCC2)cc1 [MO8] |  |  | 34.6 ± 5.44% | 74.61 ± 0.73% | 83.7 ± 4.02% | > 40 µM | 0.32 ± 0.16 µM | >125.0 | 
12 | O=C(/C=C/c1ccc(Br)cc1)c1ccc(N2CCOCC2)cc1 [MO9] | 14.61 ± 0.08 ×10⁻⁶ cm/s | CNS+ (CNS+ (high): Pe (10^−6 cm s^−1) > 4.00) | 51.3 ± 2.42% | 70.2 ± 5.5% | 79.8 ± 1.54% | > 40 µM | 0.36 ± 0.16 µM | >111.1 | Type of AChE inhibition (AChE [6]): reversibly noncompetitively inhibited; also recorded: non-competitively; Reversibility of AChE inhibition (AChE [7]): reversible inhibitors; AChE residual activity, dialysed (AD) (AChE [7]): 80.7%; AChE residual activity, undialyzed (AU) (AChE [7]): 33.8%; BBB permeation (in vitro; PAMPA-BBB): crossed the blood–brain barrier; IC50 (normal VERO cells): 188 µg/mL (≈ 506 µM); Toxicity to normal VERO cells (normal VERO cells; MTT assay): non-toxic
13 | CN1C(C(=O)Nc2ccccn2)=C(O)c2ccccc2S1(=O)=O [Piroxicam, reference compound] | 2.35 ± 0.3 ×10⁻⁶ cm/s | CNS+/- |  |  |  |  |  |  | Bibliography Pe (×10^−6 cm s^−1) [1]: 2.5 ×10^−6 cm s^−1
